Reference: patent publication US8394821B2, “Activated blood coagulation factor inhibitor” (Daiichi Sankyo Company, Limited, priority 2009, dated 2013)
Values after ≈ are worked out from the molar mass of the structure shown. Where two headings read alike, the source gives them in different places.

Columns and labels:
Assay type in all cases: physicochemical
[1] = Evaluation of crystal stability (storage at 25° C. at adjusted relative humidity); details: for 0% RH Weight change (%) / 52% RH Weight change (%) / 93% RH Weight change (%): 25° C., 3-day storage
Description: Approximately 50 mg of each of various samples prepared in Example 1 was placed in a weighing bottle and stored at 25° C. in a desiccator whose relative humidity was adjusted to 0%, 52%, or 93% by a saturated salt solution method (silica gel, Mg(NO3)2, KNO3). […]

[2] = Evaluation of solubility (37° C., 30 min, HPLC); details: thermodynamic from solid
Description: A supersaturated amount of each sample was placed in a 12-mL test tube, and 3 mL of a test solution (water, Japanese Pharmacopoeia disintegration test solution No. 1 (JP1), and Japanese Pharmacopoeia disintegration test solution No. 2 (JP2)) was added thereto. The test tube was incubated in a constant-temperature water bath at 37° C. The test tube was shaken using a vortex mixer for 30 seconds every 5 minutes. 30 minutes later, the supernatant was filtered through a membrane filter (pore size: 0.45 μm), appropriately diluted with eluent, and then analyzed by HPLC under the following conditions. The concentration was calculated from a calibration curve prepared before measurement.
Measurement conditions of HPLC (column: Waters Symmetry C18 4.6 mm×150 mm, eluent: 0.05 M phosphate buffer (pH 5.0): acetonitrile=70:30, flow rate: 1 mL/min., detection: UV 220 nm, column temperature: 40° C.)

[3] = Evaluation of chemical stability (dry heat, wet heat, light irradiation; HPLC residue); details: for Residue (%, mean ± SD) Light irradiation (Lx · hr) 60 × 10^4: light irradiation 60 × 10^4 Lx · hr; for Residue (%, mean ± SD) Light irradiation (Lx · hr) 120 × 10^4: light irradiation 120 × 10^4 Lx · hr; for Residue (%, mean ± SD) 50° C., 0% RH 1 week later / Residue (%, mean ± SD) 50° C., 0% RH 2 week later: dry heat 50° C.; for Residue (%, mean ± SD) 50° C., 0% RH 2 week later / Residue (%, mean ± SD) 40° C., 75% RH 2 week later: 2 weeks; for Residue (%, mean ± SD) 40° C., 75% RH 1 week later / Residue (%, mean ± SD) 40° C., 75% RH 2 week later: wet heat 40° C.
Description: Approximately 2 mg of each of various samples prepared in Example 1 was weighed into an aluminum pan for thermal analysis and stored under dry heat (50° C., 0% RH) or wet heat (40° C., 75% RH) conditions. 1 week or 2 weeks later, each sample was collected, and the weight change was measured. Then, the whole amount was dissolved in 20 mL of eluent and analyzed by HPLC. For photolysis samples, approximately 10 mg of each sample was weighed into a weighing bottle and stored at 25° C. in a light irradiator. After irradiation at 600,000 or 1,200,000 Lx/hr, the sample was collected, and the weight change was measured. Then, the whole amount was dissolved in 100 mL of eluent and analyzed by HPLC. The residue proportion was determined from the ratio between the concentration of the sample solution calculated from a calibration curve prepared before measurement and the theoretical concentration calculated from weight measurement.
Measurement conditions of HPLC (column: Waters Symmetry C18 4.6 mm×150 mm, eluent: 0.05 M phosphate buffer (pH 5.0): acetonitrile=80:20, flow rate: 1 mL/min., detection: UV 220 nm, column temperature: 40° C.)

[4] = Moisture absorption and desorption characteristics (microbalance, water vapor adsorption apparatus); details: 25° C., 10-90% RH
Description: Various samples prepared in Example 1 were separately placed in quartz holders and measured for their moisture absorption and desorption behavior under the following conditions using a microbalance.
Moisture absorption and desorption behavior measurement conditions (sample volume: approximately 20 mg, measurement range: 10-90% RH, measurement temperature: 25° C., variable: within 0.03%, varying length of time: 10 min., apparatus: VTI atmospheric pressure-type automatic water vapor adsorption apparatus SGA-100)

SMILES | 0% RH Weight change (%) [1] [%] | 52% RH Weight change (%) [1] [%] | 93% RH Weight change (%) [1] [%] | solubility at 30 min ([2]; pH 1.2, simulated gastric fluid, Japanese Pharmacopoeia disintegration test solution No. 1, 37° C., read-out: JP1 (Solubility (μg/mL))) [µg/mL] | solubility at 30 min ([2]; pH 6.8, aqueous buffer, Japanese Pharmacopoeia disintegration test solution No. 2, 37° C., read-out: JP2 (Solubility (μg/mL))) [µg/mL] | solubility at 30 min ([2]; water, 37° C., read-out: Water (Solubility (μg/mL))) [µg/mL] | Light irradiation Color ([3]; 25° C., after light irradiation) | Residue (%, mean ± SD) Light irradiation (Lx · hr) 60 × 10^4 ([3]; 25° C.) [%] | Residue (%, mean ± SD) Light irradiation (Lx · hr) 120 × 10^4 ([3]; 25° C.) [%] | Residue (%, mean ± SD) 50° C., 0% RH 1 week later [3] [%] | Residue (%, mean ± SD) 50° C., 0% RH 2 week later [3] [%] | Residue (%, mean ± SD) 40° C., 75% RH 1 week later [3] [%] | Residue (%, mean ± SD) 40° C., 75% RH 2 week later [3] [%] | stability on storage: weight and crystal form (in words) ([1]; stored for 3 days under three standard relative humidity conditions at 25° C.) | moisture absorption and desorption characteristics/behavior (in words) [4]
CN1CCc2nc(C(=O)N[C@@H]3C[C@@H](C(=O)N(C)C)CC[C@@H]3NC(=O)C(=O)Nc3ccc(Cl)cn3)sc2C1 [Compound A, N^1-(5-chloropyridin-2-yl)-N^2-((1S,2R,4S)-4-[(dimethylamino)carbonyl]-2-{[(5-methyl-4,5,6,7-tetrahydrothiazolo[5,4-c]pyridin-2-yl)carbonyl]amino}cyclohexyl)ethanediamide] | −0.32 | −0.22 | −0.04 | > 2000 | 49.8 (≈ 90.9 µM) | 47.5 (≈ 86.7 µM) | Changed | 92.0 ± 0.3 | 82.8 ± 0.4 | 99.3 ± 0.4 | 97.5 ± 0.7 | 99.8 ± 0.3 | 98.7 ± 1.3 |  | 
CN1CCc2nc(C(=O)N[C@@H]3C[C@@H](C(=O)N(C)C)CC[C@@H]3NC(=O)C(=O)Nc3ccc(Cl)cn3)sc2C1.O.O=C(O)C(O)C(O)C(=O)O [compound II, N^1-(5-chloropyridin-2-yl)-N^2-((1S,2R,4S)-4-[(dimethylamino)carbonyl]-2-{[(5-methyl-4,5,6,7-tetrahydrothiazolo[5,4-c]pyridin-2-yl)carbonyl]amino}cyclohexyl)ethanediamide(+)-tartrate monohydrate] | −0.35 | 0.05 | 0.31 |  |  |  |  | 98.2 ± 0.9 | 95.0 ± 1.2 | 100.4 ± 0.7 | 100.1 ± 0.7 | 100.1 ± 0.7 | 100.1 ± 0.3 | stable without change both in weight and in crystal form | favorable moisture absorption and desorption characteristics
